This note sets out measurements from US11446298B2, “Pyrimidine derivatives” (Idorsia Pharmaceuticals Ltd, priority 2017, dated 2022).

Common to all, as to type: cell-based
Test [1] concerns the target T1, EP4 (Homo sapiens, UniProt P35408).
T1 construct: BT549 breast cancer cells, express high endogenous EP4 levels and very low EP2 levels; host or cells: BT549 breast cancer cells
The test can be described thus: hEP4 cAMP Assay (BT549 breast cancer cells, HTRF cAMP, PGE2 6 nM). The conditions noted are these: antagonistic activity, PGE2 6 nM (EC80). Summed up:
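BT549 cells (endogenous EP4, very low EP2) in HBSS/20 mM HEPES/0.2% BSA/2 mM IBMX, pre-incubated 45 min RT with compound, then stimulated 30 min RT with PGE2 6 nM (EC80). cAMP read by HTRF competitive immunoassay (665/620 nm), converted via calibrator to % of DMSO control; IC50 from duplicate dose-response curves.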

Test [2] has as its target T2, PTGER2 (EP2) (Homo sapiens, UniProt P43116).
T2 construct: host or cells: HEK 293 (PathHunter, stably transfected)
Briefly: hEP2 b-Arrestin Assay (PathHunter HEK 293 PTGER2 b-arrestin cells, PGE2 5 μM). The conditions noted are these: antagonistic activity, beta-arrestin assay, HEK 293 PTGER2 cells, PGE2 5 μM (EC80); read-out: hEP2 b-arr IC50. The procedure, abridged: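 PathHunter enzyme-fragment complementation in HEK 293 cells: compounds (10 μM-2 nM or 1 μM-0.2 nM) pre-incubated 15 min at 37 °C, then 5 μM PGE2 (EC80) for 120 min at 37 °C. Chemiluminescence read after 1 h detection; IC50 from duplicate dose-response fits, means of repeats.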

Test [3] concerns the target T3, EP2 (Homo sapiens, UniProt P43116).
T3 construct: SF295 glioblastoma cells express high endogenous EP2 and no EP4; host or cells: SF295 glioblastoma cells
The test can be described thus: hEP2 cAMP Assay (SF295 glioblastoma cells, HTRF cAMP, PGE2 75 nM). The conditions noted are these: antagonistic activity, PGE2 75 nM (EC80). Summed up: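 IC50 values derive from duplicate-point curves of percent cAMP relative to DMSO, read by HTRF (665/620 nm) against a cAMP calibrator. Compounds (30 μM to 0.01 nM ranges) were given 45 min at room temperature before 30 min with 75 nM PGE2, in EP2-only SF295 cells with 2 mM IBMX.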

Test [4] concerns the target T4, PTGER4 (EP4) (Homo sapiens, UniProt P35408).
T4 construct: host or cells: HEK 293 (PathHunter, stably transfected)
The test can be described thus: hEP4 b-Arrestin Assay (PathHunter HEK 293 PTGER4 b-arrestin cells, PGE2 20 nM). The conditions noted are these: antagonistic activity, beta-arrestin assay, HEK 293 PTGER4 cells, PGE2 20 nM (EC80); read-out: hEP4 b-arr IC50. On the procedure: The antagonistic activities of the compounds of formula (I) on the EP2 and EP4 receptors are also determined in accordance with the following experimental method.
The assay is using the PathHunter™ HEK 293 PTGER2 and PTGER4 b-arrestin cell lines from DiscoverX. The system is based on the Enzyme Fragment Complementation Technology. Two complementing fragments of the b-galactosidase enzyme are expressed within stably transfected cells. The larger portion of b-gal, termed EA for Enzyme Acceptor, is fused to the C-terminus of b-arrestin 2. The smaller fragment, termed ProLink™ tag, is fused to PTGER2 (EP2) or PTRGER4 (EP4) at the C-terminus. Upon activation, b-arrestin is recruited which forces the interaction of ProLink and EA, allowing complementation of the two fragments of b-gal and the formation of a functional enzyme which is capable of hydrolysing the substrate and generating a chemiluminescent signal.
The HEK 293 PTGER4 b-arrestin cells (DiscoverX 93-030-4C1) are detached from culture dishes with a cell dissociation buffer (Invitrogen, 13151-014), and collected in growing medium (GM: DMEM+Glutamax-I (Invitrogen 32430)/10% FCS, 1% Penicilin/streptomycin). 5000 cells per well of a 384 well plate (white with white bottom Greiner 781080) are seeded in 20 ul per well of GM. Plate is incubated at 37° C., 5% CO2 for 24 hours.
Stock solutions of test compounds are made at a concentration of 10 mM in DMSO, and serially diluted in DMSO to concentrations required for inhibition dose response curves (tested concentration range 10 μM-2 nM or 1 μM-0.2 nM).
PGE2 (Cayman 14010, stock solution: 100 μM in DMSO) is used as agonist at 20 nM final concentration, corresponding to EC80.
Five microliters of diluted compounds are transferred into the assay plate. Plate is pre-incubated 15 minutes at 37° C. Then five microliters of PGE2 (final conc. 20 nM) are transferred into the assay plate. Plate is incubated 120 minutes at 37° C.
PathHunter Glo Detection Kit components are thawed and mix according to manufacturer's instructions: 1 part Galacton Star Substrate with 5 parts Emerald II™ Solution, and 19 parts of PathHunter Cell Assay Buffer, respectively. Twelve μl of reagent are transferred to the assay plate and incubate for 1 hour at room temperature in the dark. Luminescence counts are read on a BMG Fluostar Optima reader according to manufacturer's instructions.
For each compound concentration calculate of the percentage of activity compared to DMSO control value as average ±STDEV. (each concentration is measured in duplicate)
IC50 values and curves are generated with XLfit software (IDBS) using Dose-Response One Site model 203. When compounds were measured multiple times, mean values are given.

SMILES strings stand for the structures. pIC50: −log10 of the molar value.

T4 sequence (P35408 whole entry): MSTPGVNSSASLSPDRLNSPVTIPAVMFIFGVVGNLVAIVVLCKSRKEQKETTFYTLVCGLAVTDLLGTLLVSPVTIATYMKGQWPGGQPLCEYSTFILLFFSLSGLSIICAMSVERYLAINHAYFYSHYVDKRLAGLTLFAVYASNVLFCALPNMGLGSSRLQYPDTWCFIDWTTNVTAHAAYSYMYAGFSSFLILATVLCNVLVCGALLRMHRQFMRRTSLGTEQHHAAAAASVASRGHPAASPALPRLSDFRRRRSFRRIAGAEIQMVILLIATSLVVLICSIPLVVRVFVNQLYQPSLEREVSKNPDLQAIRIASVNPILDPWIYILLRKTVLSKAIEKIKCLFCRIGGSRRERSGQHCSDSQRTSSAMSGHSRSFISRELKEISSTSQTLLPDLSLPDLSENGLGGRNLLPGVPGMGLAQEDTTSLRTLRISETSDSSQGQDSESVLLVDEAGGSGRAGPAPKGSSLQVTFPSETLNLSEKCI
T1 sequence (P35408 whole entry): as above
T3 sequence (P43116 whole entry): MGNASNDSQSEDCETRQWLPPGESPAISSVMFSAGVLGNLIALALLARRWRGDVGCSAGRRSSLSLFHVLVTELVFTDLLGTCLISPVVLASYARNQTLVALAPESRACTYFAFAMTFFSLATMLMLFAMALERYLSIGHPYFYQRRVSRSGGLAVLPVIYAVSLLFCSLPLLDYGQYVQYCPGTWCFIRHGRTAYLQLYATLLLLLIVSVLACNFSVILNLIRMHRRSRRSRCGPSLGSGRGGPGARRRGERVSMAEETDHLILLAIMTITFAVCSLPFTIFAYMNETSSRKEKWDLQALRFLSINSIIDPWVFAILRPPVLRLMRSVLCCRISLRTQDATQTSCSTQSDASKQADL
T2 sequence (P43116 whole entry): as above

On to `CCOc1cc(-c2cc(NCCc3c(C)ccc4ccccc34)ncn2)sc1C(=O)O` [Example 1, 3-Ethoxy-5-{6-[2-(2-methyl-naphthalen-1-yl)-ethylamino]-pyrimidin-4-yl}-thiophene-2-carboxylic acid], for which the pIC50 in test [1] is 7.33; in test [2], 8.30; in test [3], 8.40; in test [4] it was 6.75.
The matching figures for `CCOc1cc(-c2cc(NCCc3c(C)ccc4ncccc34)ncn2)sc1C(=O)O` [Example 2, 3-Ethoxy-5-{6-[2-(6-methyl-quinolin-5-yl)-ethylamino]-pyrimidin-4-yl}-thiophene-2-carboxylic acid]: 7.00, 7.57, 7.33 and 6.51.
The matching figures for `CCOc1cc(-c2cc(NCCc3c(OC)ccc4ccccc34)ncn2)sc1C(=O)O` [Example 4, 3-Ethoxy-5-{6-[2-(2-methoxy-naphthalen-1-yl)-ethylamino]-pyrimidin-4-yl}-thiophene-2-carboxylic acid]: 7.82, 8.70, 8.70 and 7.70.
The matching figures for `COc1ccc2ccccc2c1CCNc1cc(-c2ccc(C(=O)O)c(OC3CCC3)c2)ncn1` [Example 5, 2-Cyclobutoxy-4-{6-[2-(2-methoxy-naphthalen-1-yl)-ethylamino]-pyrimidin-4-yl}-benzoic acid]: 6.69, 7.60, 7.62 and 6.74.
Consider `CCOc1cc(-c2cc(NCCc3cccc4ccccc34)ncn2)ccc1C(=O)O` [Example 6, 2-Ethoxy-4-[6-(2-naphthalen-1-yl-ethylamino)-pyrimidin-4-yl]-benzoic acid], for which the pIC50 in test [1] was 6.04; in test [2], 7.07; in test [3], 7.02; in test [4], 5.77.
With `CCOc1cc(-c2cc(NCCc3cccc4ccccc34)ncn2)sc1C(=O)O` [Example 9, 3-Ethoxy-5-[6-(2-naphthalen-1-yl-ethylamino)-pyrimidin-4-yl]-thiophene-2-carboxylic acid], the pIC50 in test [1] was 7.85; in test [2], 7.96; in test [3], 8.05; in test [4], 7.25.
Taken in the same sequence, the figures for `CCOc1cc(-c2cc(NCCc3c(C)c(C)cc4ccccc34)ncn2)sc1C(=O)O` [Example 12, 5-{6-[2-(2,3-Dimethyl-naphthalen-1-yl)-ethylamino]-pyrimidin-4-yl}-3-ethoxy-thiophene-2-carboxylic acid] were 7.77, 7.57, 7.77 and 7.28.
Taken in the same sequence, the figures for `CCOc1cc(-c2cc(NCCc3c(OC)ccc4nc(C)ccc34)ncn2)sc1C(=O)O` [Example 13, 3-Ethoxy-5-{6-[2-(6-methoxy-2-methyl-quinolin-5-yl)-ethylamino]-pyrimidin-4-yl}-thiophene-2-carboxylic acid] were 6.86, 7.60, 7.62 and 6.65.
`CCOc1cc(-c2cc(NCCc3c(OC)c(OC)cc4ccccc34)ncn2)sc1C(=O)O` [Example 14, 5-{6-[2-(2,3-Dimethoxy-naphthalen-1-yl)-ethylamino]-pyrimidin-4-yl}-3-ethoxy-thiophene-2-carboxylic acid]: the pIC50 in test [1] was 7.62; in test [2] it was 7.55; in test [3] it was 7.11; in test [4] it was 7.77.
For the compound `CCOc1ccc2sccc2c1CCNc1cc(-c2ccc(C(=O)O)c(SC)c2)ncn1` [Example 177, 4-{6-[2-(5-Ethoxy-benzo[b]thiophen-4-yl)-ethylamino]-pyrimidin-4-yl}-2-methylsulfanyl-benzoic acid], the pIC50 in test [2] was 8.40; in test [4], 6.48.
Taken in the same sequence, the figures for `CSc1cc(-c2cc(NCCc3cc(F)cc4ccccc34)ncn2)ccc1C(=O)O` [Example 178, 4-{6-[2-(3-Fluoro-naphthalen-1-yl)-ethylamino]-pyrimidin-4-yl}-2-methylsulfanyl-benzoic acid] were 6.85 and 6.06.
The matching figures for `CCOc1cc(-c2cc(NCCc3ccc(Br)c4ccn(C)c34)ncn2)ccc1C(=O)O` [Example 180, 4-{6-[2-(4-Bromo-1-methyl-1H-indol-7-yl)-ethylamino]-pyrimidin-4-yl}-2-ethoxy-benzoic acid]: 6.36 and 6.63.
On to `CCOc1cc(-c2cc(NCCc3c(Br)cc(F)c4ccccc34)ncn2)ccc1C(=O)O` [Example 181, 4-{6-[2-(2-Bromo-4-fluoro-naphthalen-1-yl)-ethylamino]-pyrimidin-4-yl}-2-ethoxy-benzoic acid], for which the results for the pIC50 in test [2] and in test [4] were 6.02 and 6.05, respectively.
The matching figures for `CCOc1cc(-c2cc(NCCc3cccc4c(F)cccc34)ncn2)ccc1C(=O)O` [Example 183, 2-Ethoxy-4-{6-[2-(5-fluoro-naphthalen-1-yl)-ethylamino]-pyrimidin-4-yl}-benzoic acid]: 7.22 and 6.15.
The matching figures for `CCOc1cc(-c2cc(NCCc3c(OC)ccc4sccc34)ncn2)ccc1C(=O)O` [Example 185, 2-Ethoxy-4-{6-[2-(5-methoxy-benzo[b]thiophen-4-yl)-ethylamino]-pyrimidin-4-yl}-benzoic acid]: 7.85 and 6.70.
The matching figures for `CCOc1cc(-c2cc(NCCc3c(OC)ccc4c3ccn4C)ncn2)ccc1C(=O)O` [Example 186, 2-Ethoxy-4-{6-[2-(5-methoxy-1-methyl-1H-indol-4-yl)-ethylamino]-pyrimidin-4-yl}-benzoic acid]: 8.05 and 6.30.
Turning to `CCOc1cc(-c2cc(NCCc3c(OCC)ccc4sccc34)ncn2)ccc1C(=O)O` [Example 187, 2-Ethoxy-4-{6-[2-(5-ethoxy-benzo[b]thiophen-4-yl)-ethylamino]-pyrimidin-4-yl}-benzoic acid], the pIC50 in test [2] is 8.00; in test [4], 6.25.
For the compound `CCOc1cc(-c2cc(NCCc3c(OC)ccc4ccccc34)ncn2)ccc1-c1noc(=S)[nH]1` [Example 189, 3-(2-Ethoxy-4-{6-[2-(2-methoxy-naphthalen-1-yl)-ethylamino]-pyrimidin-4-yl}-phenyl)-[1,2,4]-oxadiazole-5(4H)-thione], the pIC50 in test [2] is 8.30; in test [4], 7.80.
The matching figures for `CCOc1cc(-c2cc(NCCc3c(OC)ccc4ccccc34)ncn2)ccc1Cc1noc(=O)[nH]1` [Example 191, 3-(2-Ethoxy-4-{6-[2-(2-methoxy-naphthalen-1-yl)-ethylamino]-pyrimidin-4-yl}-benzyl)-[1,2,4]oxadiazol-5(4H)-one]: 7.64 and 6.66.
